According to patent US10039749B1, “Substituted pyrazole derivatives” (KING SAUD UNIVERSITY, priority 2018, dated 2018):
Read-outs that look alike come from different tables or passages of the source. Marks after values point to notes of the source that are not given here.

Legend:
[1] = tested on: Breast subpanel tumor cell lines; test: In vitro anticancer screening, five concentration levels, breast subpanel; assay type: cell-based, human
Protocol: (§1) Anticancer evaluation of the newly synthesized compound was performed by a screening in vitro with 60 human cell lines for primary anticancer screening, representing leukemia, melanoma and cancers of the lung, colon, brain, ovary, breast, prostate and kidney. The screening was a two-stage process, beginning with the evaluation of all compounds against the 60 cell lines at a single-dose of 10 μM. […] Therefore this compound passed on to further evaluation at five concentration levels ranging from 0.01 μM to 100 μM.

[2] = tested on: DENA-induced liver cancer in rats; test: Histopathological examination of rat liver sections; assay type: in vivo; conditions: H&E staining
Source text: For the histopathological examination, the animals were euthanized by decapitation and their livers were rapidly excised, weighed, and washed with saline. Portions of the livers were fixed in 10% formalin in saline, embedded in paraffin wax, serially sectioned, and stained. A standard method of hematoxylin and eosin (H&E) staining was also used.

[3] = tested on: Colon subpanel tumor cell lines; test: In vitro anticancer screening, five concentration levels, colon subpanel; assay type: cell-based, human
Protocol: as §1

[4] = tested on: CNS subpanel tumor cell lines; test: In vitro anticancer screening, five concentration levels, CNS subpanel; assay type: cell-based, human
Protocol: as §1

[5] = tested on: Prostate subpanel tumor cell lines; test: In vitro anticancer screening, five concentration levels, prostate subpanel; assay type: cell-based, human
Protocol: as §1

[6] = tested on: Melanoma subpanel tumor cell lines; test: In vitro anticancer screening, five concentration levels, melanoma subpanel; assay type: cell-based, human
Protocol: as §1

[7] = tested on: DENA-induced liver cancer in rats; test: Liver function in DENA-induced liver cancer in rats; assay type: in vivo, rat; conditions: for ALP / ALT / AST / Bili (total bilirubin): serum, mean ± SE
Protocol: (§2) Adult male Sprague-Dawley rats (180±20 g, body weight), were purchased from the animal house of the National Research Centre, Egypt. They were maintained for 1 week under environmentally controlled conditions (constant temperature, 25-27° C., with 12-hour light/dark cycles) for 1 week prior to starting the experiments. The […] were housed with 10 animals per cage, and were provided with tap water and commercial diets.
Diethylnitrosamine (DENA) and carbon tetrachloride (CCl4) were purchased from Sigma-Aldrich Chemical Corp., (St. Louis, Mo., USA). The DENA was dissolved in normal saline and injected as a single dose (200 mg/kg, intraperitoneally, i.p.) to initiate hepatic carcinogenesis. The CCl4 was administered as a single dose (2 ml/kg) by gavage as a 1:1 dilution in corn oil to stimulate liver cell proliferation and regeneration. The aspartate transaminase (AST), alanine transaminase (ALT), alkaline phosphatase (ALP), and total bilirubin (Bili) kits were obtained from BioMérieux (France).
Adult male Sprague-Dawley rats were divided into groups of eight animals each. Group 1 rats (untreated control) were fed a standard diet and given water throughout the experiment. Group 2 rats (treated with DENA) were injected with a single dose of DENA (200 mg/kg, i.p.), and 2 weeks later received a single dose of CCl4 (2 ml/kg) by gavage as 1:1 dilution in corn oil. Group 3 rats (treated with DENA and target compound) consisted of rats that were treated as the rats in Group 2, but also were treated with target compound administered IV at a dose that was 1/10 the LD50, for 10 consecutive days.
At the end of the treatment protocol on day 30 after the last injection, the animals were anesthetized with ether, and blood samples were drawn from the orbital venous plexus. The serum was separated by centrifugation for 5 minutes at 1500 g, and stored at −20° C. until analyzed. This serum was used to determine the liver function by assaying the ALT, AST, and ALP activities and total bilirubin spectrophotometrically according to the manufacturer's instructions using reagent kits obtained from […]. Liver function was measured, comparing results for control rats with results in DENA-treated and in target compound-treated rats. The results were reported as mean±standard error of the mean (SE). Statistical significance was analyzed using a one-way analysis of variance (ANOVA) followed by the Student's t-test, while the differences were considered to be significant at p<0.05.

[8] = tested on: Sprague-Dawley rats; test: In vivo acute toxicity (LD50); design: species or system rat
Protocol: as §2
Acute toxicity of the target compound was determined in vivo according to previously reported methods in the literature. Briefly, animals were divided into groups of 10 rats each, and administered single intravenous (IV) doses, graded ranging from 0 to 1200 μg/kg, of the synthesized compound. Control animals received vehicle alone (dimethyl sulfoxide, DMSO).
The mortality of the animals was monitored for up to 1 month posttreatment. […] Acute toxicity was considered by the in vivo assay.

[9] = tested on: Ovarian subpanel tumor cell lines; test: In vitro anticancer screening, five concentration levels, ovarian subpanel; assay type: cell-based, human
Protocol: as §1

[10] = tested on: 60 human cell lines; test: In vitro anticancer screening, full panel; assay type: cell-based; conditions: for GI50: Homo sapiens, read-out: GI50 MG-MID (full panel mean-graph midpoint)
Protocol: as §1

[11] = tested on: Renal subpanel tumor cell lines; test: In vitro anticancer screening, five concentration levels, renal subpanel; assay type: cell-based, human
Protocol: as §1

[12] = tested on: Lung subpanel tumor cell lines; test: In vitro anticancer screening, five concentration levels, lung subpanel; assay type: cell-based, human
Protocol: as §1

[13] = tested on: Leukemia subpanel tumor cell lines; test: In vitro anticancer screening, five concentration levels, leukemia subpanel; assay type: cell-based, human
Protocol: as §1

[14] = DENA/CCl4 rats treated IV at 1/10 LD50 for 10 days, day 30 after last injection
[15] = rats given DENA 200 mg/kg i.p. then CCl4, no target compound

`COc1ccc(-c2nn(-c3cccc(Cl)c3)cc2/C=C2\C(=N)N(c3ccccc3)N=C2N)cc1` [Compound 2, (4Z)-4-((1-(3-Chlorophenyl)-3-(4-methoxyphenyl)-1H-pyrazol-4-yl)methylene)-4,5-dihydro-5-imino-1-phenyl-1H-pyrazol-3-amine] was tested, and the “Selectivity ratio, Breast” value [1] was 1.68, the GI50 ([1]; Homo sapiens, read-out: Median growth inhibitory concentration GI50, Breast) was 2130 nM and the “Liver histology (H&E) of DENA-rats treated with target compound” value ([2]; listed as target) was “improvement in the hepatic pattern associated with normal hepatic architecture”. For the same compound, the “Liver histology (H&E) of DENA-rats treated with target compound” value ([2]; listed as target compound) was “normal hepatic architecture”, the “Selectivity ratio, Colon” value [3] was 2.86 and the GI50 ([3]; Homo sapiens, read-out: Median growth inhibitory concentration GI50, Colon) was 1250 nM. For the same compound, the “Selectivity ratio, CNS” value [4] was 0.63, the GI50 ([4]; Homo sapiens, read-out: Median growth inhibitory concentration GI50, CNS) was 5700 nM and the “Selectivity ratio, Prostate” value [5] was 5.19. For the same compound, the GI50 ([5]; Homo sapiens, read-out: Median growth inhibitory concentration GI50, Prostate) was 690 nM, the “Selectivity ratio, Melanoma” value [6] was 1.27 and the GI50 ([6]; Homo sapiens, read-out: Median growth inhibitory concentration GI50, Melanoma) was 2830 nM. For the same compound, the “AST, ALT and ALP activities and total bilirubin level compared to DENA-treated rats (in words)” value ([7]; dose of 1/10 of the LD50) was “substantial normalization”, the ALP [7, 14] was 124.00 ± 12.00^b U/L and the ALT [7, 14] was 49.00 ± 4.6^b U/L. For the same compound, the AST [7, 14] was 70.00 ± 7.2^b U/L, the “Bili (total bilirubin)” value [7, 14] was 1.63 ± 0.16^b mg/dl and the “Median lethal dose (LD50)” value ([8]; single IV dose, mortality monitored up to 1 month) was 195 μg/kg body weight. For the same compound, the “Acute toxicity (in words)” value ([8]; single IV doses 0 to 1200 μg/kg) was “no marked acute toxicity”, the “Selectivity ratio, Ovarian” value [9] was 0.59 and the GI50 ([9]; Homo sapiens, read-out: Median growth inhibitory concentration GI50, Ovarian) was 6110 nM. The GI50 ([10]; 60 cell) was 3590 nM, the “Growth inhibition, one dose mean graph” value ([10]; single-dose of 10 μM, 60 cell lines) was “significant growth inhibition” and the “Selectivity ratio, Renal” value [11] was 0.65. The GI50 ([11]; Homo sapiens, read-out: Median growth inhibitory concentration GI50, Renal) was 5550 nM, the “Selectivity ratio, Lung” value [12] was 0.49 and the GI50 ([12]; Homo sapiens, read-out: Median growth inhibitory concentration GI50, Lung) was 7390 nM. For the same compound, the “Selectivity ratio, Leukemia” value [13] was 5.86 and the GI50 ([13]; Homo sapiens, read-out: Median growth inhibitory concentration GI50, Leukemia) was 610 nM.

In the case of `CCN(CC)N=O` [DENA, Diethylnitrosamine, reference compound], the ALP [7, 15] is reported as 215.00 ± 15.7^a U/L, the ALT [7, 15] is reported as 95.00 ± 7.0^a U/L and the AST [7, 15] is reported as 110.00 ± 7.8^a U/L. For the same compound, the “Bili (total bilirubin)” value [7, 15] was 2.90 ± 0.20^a mg/dl.

In the case of `CNC(=O)c1cc(Oc2ccc(NC(=O)Nc3ccc(Cl)c(C(F)(F)F)c3)cc2)ccn1` [Sorafenib, sorafenib, reference compound], the GI50 ([10]; full panel, 60 cell lines) is reported as 1900 nM.
